Reference: patent US11564923B2, “Compounds and pharmaceutical compositions thereof for the treatment of inflammatory disorders” (Galapagos NV, priority 2017, dated 2023)

How the values were obtained:
Assay type in all cases: biochemical
[1] = target: T1, Recombinant human TYK2 catalytic domain (amino acids 871-1187) (Homo sapiens, UniProt P29597); assay: TYK2 radioactive assay polyGT substrate; also: 0.1 µM ATP
T1 construct: catalytic domain (amino acids 871-1187)
T1 sequence (P29597 871-1187): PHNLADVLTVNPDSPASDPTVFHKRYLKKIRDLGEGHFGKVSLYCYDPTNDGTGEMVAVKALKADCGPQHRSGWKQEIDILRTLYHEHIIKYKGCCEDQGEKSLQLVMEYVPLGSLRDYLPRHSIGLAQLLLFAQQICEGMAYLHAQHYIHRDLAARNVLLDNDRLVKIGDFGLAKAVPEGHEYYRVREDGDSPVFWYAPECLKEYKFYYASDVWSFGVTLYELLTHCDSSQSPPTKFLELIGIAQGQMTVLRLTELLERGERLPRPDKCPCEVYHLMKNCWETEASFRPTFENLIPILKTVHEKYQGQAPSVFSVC
Procedure, shortened: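 Reaction at 30° C. for 120 min, ended with 150 mM phosphoric acid, washed, counted; percent inhibition scaled between vehicle and 10 μM staurosporine cpm.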

[2] = target: Recombinant human JAK3 catalytic domain (amino acids 781-1124) (Homo sapiens, UniProt P52333); assay: JAK3 inhibition assay
Recombinant human JAK3 catalytic domain (amino acids 781-1124), sequence (P52333 781-1124): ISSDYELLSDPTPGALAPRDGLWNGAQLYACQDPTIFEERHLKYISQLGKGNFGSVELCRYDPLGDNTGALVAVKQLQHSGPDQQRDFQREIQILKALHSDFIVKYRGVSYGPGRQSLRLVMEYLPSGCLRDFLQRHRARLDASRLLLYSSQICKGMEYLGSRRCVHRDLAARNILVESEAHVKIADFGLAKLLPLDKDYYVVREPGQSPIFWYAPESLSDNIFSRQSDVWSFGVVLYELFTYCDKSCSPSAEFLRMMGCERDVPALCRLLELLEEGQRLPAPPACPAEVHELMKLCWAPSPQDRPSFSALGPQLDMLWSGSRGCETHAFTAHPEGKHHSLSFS
Protocol: After 45 min at 30° C., reactions are stopped by adding 25 μL/well of 150 mM phosphoric acid. […] Plates are washed 6 times with 300 μL per well of a 75 mM phosphoric acid solution and the bottom of the plates is sealed. […] Kinase activity is calculated by subtracting counts per min (cpm) obtained in the presence of a positive control inhibitor (10 μM staurosporine) from cpm obtained in the presence of vehicle. The ability of a test compound to inhibit this activity (or percentage inhibition) is determined as: […]
cpm test compound=cpm determined for sample with test compound present cpm control=cpm determined for sample with positive control inhibitor cpm vehicle=cpm determined in the presence of vehicle
(§1) Dose dilution series were prepared for the compounds enabling the testing of dose-response effects in the JAK3 assay and the calculation of the IC50 for each compound. Each compound is routinely tested at concentration of 20 μM followed by a 1/5 serial dilution, 10 points in a final concentration of 1% DMSO.

[3] = target: T2, Recombinant human JAK2 (catalytic domain, amino acids 808-1132) (Homo sapiens, UniProt O60674); assay: JAK2 inhibition assay; conditions: read-out: JAK2 potency IC50; also: 0.7 µM ATP
T2 construct: catalytic domain, amino acids 808-1132
T2 sequence (O60674 808-1132): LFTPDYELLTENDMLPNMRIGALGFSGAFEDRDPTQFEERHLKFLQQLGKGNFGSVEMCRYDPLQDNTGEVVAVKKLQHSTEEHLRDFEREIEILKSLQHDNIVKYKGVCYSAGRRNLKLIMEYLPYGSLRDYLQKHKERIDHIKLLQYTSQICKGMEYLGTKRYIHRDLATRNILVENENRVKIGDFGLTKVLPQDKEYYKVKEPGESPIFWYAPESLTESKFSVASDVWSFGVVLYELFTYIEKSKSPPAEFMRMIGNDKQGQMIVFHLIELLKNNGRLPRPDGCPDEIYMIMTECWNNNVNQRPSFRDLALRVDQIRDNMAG
Protocol: (§2) After 60 min at room temperature, reactions are stopped by adding 20 μL/well of detection mixture (1× detection buffer (Perkin Elmer, catalog number CR97-100) with 0.5 nM Europium-anti-phosphotyrosine (PT66) (Perkin Elmer, catalog number AD0068/AD0069) and 10 mM EDTA). […] Kinase activity is calculated by subtracting the ratio obtained in the presence of a positive control inhibitor (1 μM staurosporine) from the ratio obtained in the presence of vehicle. The ability of a test compound to inhibit this activity (or percentage inhibition) is determined as:
(§3) [formula] wherein Fluorescent ratio test compound=ratio RFU665/RFU615*1000 determined for sample with test compound present Fluorescent ratio control=ratio RFU665/RFU615*1000 determined for sample with positive control inhibitor Fluorescent ratio vehicle=ratio RFU665/RFU615*1000 determined in the presence of vehicle
as §1, with “are” for “were”, “compound” for “the compounds”, “JAK2” for “JAK3”, “the” for “each”, “DMSO. […] The data are expressed as the average IC50 from the assays.” for “DMSO.”

[4] = target: T3, Recombinant human JAK1 (catalytic domain, amino acids 866-1154) (Homo sapiens, UniProt P23458); assay: JAK1 inhibition assay; conditions: read-out: JAK1 potency IC50
T3 construct: catalytic domain, amino acids 866-1154
T3 sequence (P23458 866-1154): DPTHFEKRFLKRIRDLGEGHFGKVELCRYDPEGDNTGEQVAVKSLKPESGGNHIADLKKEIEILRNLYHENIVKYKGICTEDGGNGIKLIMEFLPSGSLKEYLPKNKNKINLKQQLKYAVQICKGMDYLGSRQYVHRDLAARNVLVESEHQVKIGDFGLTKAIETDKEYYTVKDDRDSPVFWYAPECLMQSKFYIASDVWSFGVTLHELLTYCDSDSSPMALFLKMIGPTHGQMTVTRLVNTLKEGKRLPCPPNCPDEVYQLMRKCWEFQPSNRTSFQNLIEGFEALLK
Protocol: as §2, with “CR97-100),” for “CR97-100) with”, “AD0068/AD0069),” for “AD0068/AD0069) and”
as §3
as §1, with “JAK1” for “JAK3”, “the” for “each”, “DMSO. […] The data are expressed as the average IC50 from the assays.” for “DMSO.”

SMILES | IC50 [1] | IC50 [2] | IC50 [3] | IC50 [4]
CN(c1cc(Nc2cc(N)ncn2)c2ncn(C)c2n1)[C@@H]1CCC[C@@H](C#N)C1 (racemic) [Compound 13, (±)-(1R,3R)-3-{[7-(6-Amino-pyrimidin-4-ylamino)-3-methyl-3H-imidazo[4,5-b]pyridin-5-yl]-methyl-amino}-cyclohexanecarbonitrile] | 1.92 nM | 9.66 nM | 3.16 nM | 24.4 nM
Cc1cc(C#N)ncc1Oc1cc(Nc2ccc(C(=O)NC3CCC(O)C3)cn2)c2ncn(C)c2n1 (racemic) [Compound 139, 6-[[5-(6-cyano-4-methylpyridin-3-yl)oxy-3-methylimidazo[4,5-b]pyridin-7-yl]amino]-N-[rac-(1R,3R)-3-hydroxycyclopentyl]pyridine-3-carboxamide] | 5.64 nM | 673 nM | 23.7 nM | 33.8 nM
COCCCNc1cc(Nc2cc(Oc3cnc(C#N)cc3C)nc3c2ncn3C)ncn1 [Compound 32, 5-{7-[6-(3-Methoxy-propylamino)-pyrimidin-4-ylamino]-3-methyl-3H-imidazo[4,5-b]pyridin-5-yloxy}-4-methyl-pyridine-2-carbonitrile] | 6.08 nM | 601 nM | 26.2 nM | 117 nM
Cc1cc(C#N)ncc1Oc1cc(Nc2cc(NCCCO)ncn2)c2ncn(C)c2n1 [Compound 34, 5-{7-[6-(3-Hydroxy-propylamino)-pyrimidin-4-ylamino]-3-methyl-3H-imidazo[4,5-b]pyridin-5-yloxy}-4-methyl-pyridine-2-carbonitrile] | 5.49 nM | 1110 nM | 23.4 nM | 101 nM
Cc1cc(C#N)ncc1Oc1cc(Nc2cc(NCC3COCCO3)ncn2)c2ncn(C)c2n1 (stereo not drawn) [Compound 35, 5-(7-{6-[([1,4]Dioxan-2-ylmethyl)-amino]-pyrimidin-4-ylamino}-3-methyl-3H-imidazo[4,5-b]pyridin-5-yloxy)-4-methyl-pyridine-2-carbonitrile] | 2.3 nM | 452 nM | 20.4 nM | 52.4 nM
COC(C)CCNc1cc(Nc2cc(Oc3cnc(C#N)cc3C)nc3c2ncn3C)ncn1 (stereo not drawn) [Compound 37, 5-{7-[6-(3-Methoxy-butylamino)-pyrimidin-4-ylamino]-3-methyl-3H-imidazo[4,5-b]pyridin-5-yloxy}-4-methyl-pyridine-2-carbonitrile] | 3.62 nM | 439 nM | 20.1 nM | 84.3 nM
CCNC(=O)c1cnc(Nc2cc(Oc3cnc(C#N)cc3C)nc3c2ncn3C)cc1C [Compound 64, 6-[[5-[(6-cyano-4-methyl-3-pyridyl)oxy]-3-methyl-imidazo[4,5-b]pyridin-7-yl]amino]-N-ethyl-4-methyl-pyridine-3-carboxamide] | 51.6 nM | 3220 nM | 214 nM | 343 nM
Cc1cc(C#N)ncc1Nc1cc(Nc2ccc(C(=O)N(C)C)nn2)c2ncn(C)c2n1 [Compound 76, 6-[[5-[(6-cyano-4-methyl-3-pyridyl)amino]-3-methyl-imidazo[4,5-b]pyridin-7-yl]amino]-N,N-dimethyl-pyridazine-3-carboxamide] | 6.71 nM | 579 nM | 19.9 nM | 200 nM
Cc1cc(C#N)ncc1Oc1cc(Nc2ccc(C(N(C)C)C(F)(F)F)cn2)c2ncn(C)c2n1 (stereo not drawn) [Compound 79] | 3.57 nM | 573 nM | 5.58 nM | 18.5 nM
CC(Nc1cc(Nc2cc(N)ncn2)c2ncn(C)c2n1)C1CCC1 (stereo not drawn) [Compound 94, N7-(6-aminopyrimidin-4-yl)-N5-(1-cyclobutylethyl)-3-methyl-imidazo[4,5-b]pyridine-5,7-diamine] | 30.7 nM | 87.1 nM | 39.7 nM | 217 nM
CC(C)[C@@H](Nc1cc(Nc2ccc(C(=O)N(C)C)cn2)c2ncn(C)c2n1)C(F)(F)F [Compound 97, N,N-dimethyl-6-[[3-methyl-5-[[(1R)-2-methyl-1-(trifluoromethyl)propyl]amino]imidazo[4,5-b]pyridin-7-yl]amino]pyridine-3-carboxamide] | 3.08 nM | 36.4 nM | 6.29 nM | 21.8 nM

Next, values leading:

IC50 [1] | IC50 [2] | IC50 [3] | IC50 [4] | SMILES
0.95 nM | 329 nM | 6.96 nM | 23.4 nM | Cc1cc(C#N)ncc1N(CCCO)c1cc(Nc2cc(N)ncn2)c2ncn(C)c2n1 [Compound 5, 5-[[7-(6-Amino-pyrimidin-4-ylamino)-3-methyl-3H-imidazo[4,5-b]pyridin-5-yl]-(3-hydroxy-propyl)-amino]-4-methyl-pyridine-2-carbonitrile]
13.4 nM | 221 nM | 25 nM | 71 nM | C[C@H](C1CC1)N(C)c1cc(Nc2cc(N)ncn2)c2ncn(C)c2n1 [Compound 16, N7-(6-aminopyrimidin-4-yl)-N5-[(1R)-1-cyclopropylethyl]-N5,3-dimethyl-imidazo[4,5-b]pyridine-5,7-diamine]
9.69 nM | 737 nM | 31.6 nM | 60.2 nM | CCNC(=O)c1ccc(Nc2cc(Oc3cnc(C#N)cc3C)nc3c2ncn3C)nc1C [Compound 78, 6-[[5-[(6-cyano-4-methyl-3-pyridyl)oxy]-3-methyl-imidazo[4,5-b]pyridin-7-yl]amino]-N-ethyl-2-methyl-pyridine-3-carboxamide]
26.3 nM | 177 nM | 38 nM | 250 nM | Cn1cnc2c(Nc3cc(N)ncn3)cc(NC(C3CC3)C3CC3)nc21 [Compound 95, N7-(6-aminopyrimidin-4-yl)-N5-(dicyclopropylmethyl)-3-methyl-imidazo[4,5-b]pyridine-5,7-diamine]
17.8 nM | 916 nM | 51.1 nM | 111 nM | Cc1cc(C#N)ncc1Oc1cc(Nc2ccc(C(=O)NCCN(C)C)cn2)c2ncn(C)c2n1 [Compound 99, 6-[[5-[(6-cyano-4-methyl-3-pyridyl)oxy]-3-methyl-imidazo[4,5-b]pyridin-7-yl]amino]-N-(2-dimethylaminoethyl)pyridine-3-carboxamide]
8.06 nM | 912 nM | 39.4 nM | 63.5 nM | COCCCNC(=O)c1ccc(Nc2cc(Oc3cnc(C#N)cc3C)nc3c2ncn3C)nc1 [Compound 100, 6-[[5-[(6-cyano-4-methyl-3-pyridyl)oxy]-3-methyl-imidazo[4,5-b]pyridin-7-yl]amino]-N-(3-methoxypropyl)pyridine-3-carboxamide]
7.08 nM | 396 nM | 36.9 nM | 151 nM | Cc1cc(C#N)ncc1Oc1cc(Nc2ccc(N3CCC(N(C)C)CC3)cn2)c2ncn(C)c2n1 [Compound 181, 5-[7-[[5-[4-(dimethylamino)-1-piperidyl]-2-pyridyl]amino]-3-methyl-imidazo[4,5-b]pyridin-5-yl]oxy-4-methyl-pyridine-2-carbonitrile]
